Measured values as given in PubChem BioAssay AID743485 (Broad Institute, 2014).

tested on: Mycobacterium tuberculosis replicating, CFU count, imaging; assay: M. tuberculosis CFU reduction, CFU imaging, dry powder, dose response (AID 743485)

Row | Compound | AC90
1 | Cn1c(NC(=O)c2ccccc2)nc2c3ccncc3ccc21 | < 8 µM
2 | Cn1c(NC(=O)c2ccccc2)nc2c3nccnc3ccc21 | < 16 µM
3 | Cn1c(NC(=O)c2ccccc2)nc2c3ncccc3ccc21 | < 8 µM
4 | Cn1c(NC(=O)c2ccccc2)nc2c3cnccc3ccc21 | < 8 µM
